Here are results for 22 molecules from patent publication US20250195530A1, “POLQ INHIBITORS” (ASTRAZENECA AB, priority 2022, published 2025).

Like-named read-outs stand apart in the source and are kept apart here. Bounds are passed on as bounds.

For this assay, the system named is DLD-1 BRCA2−/− cells. As to the kind of experiment: Homologous recombination synthetic lethal inhibition of proliferation, DLD-1 BRCA2-/- (Cell Titre Glo 3D). It counts as cell-based. The conditions noted are these: for IC50: Homo sapiens. The gist of the method: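 DLD-1 BRCA2−/− and parental DLD-1 cells exposed to 10-point dose range (10 μM to 0.51 nM, 3-fold) in RPMI/10% FBS at 37 °C, with medium and compound replenished on day 6. Viability by Cell Titre Glo 3D luminescence at day 7 (DLD-1) or day 12 (BRCA2−/−); IC50 as concentration halving maximum signal.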

Setting [1] is: DLD-1, first proliferation column (c5), DLD-1 BRCA2-/-, read-out: POLQ PD Prolif Lumin (converted).
Where [2] appears, read: DLD-1, first proliferation column, DLD-1 BRCA2-/-, read-out: POLQ PD Prolif Lumin (converted).
The mark [3] stands for this setting: DLD-1, proliferation, luminescence, taken as DLD-1 BRCA2-/-, read-out: POLQ PD Prolif Lumin (converted).
Setting [4] is: DLD-1, DLD-1 BRCA2 −/− cells, mean, read-out: POLQ PD Prolif Lumin BRCA2 −/− mean pIC50 (converted).
The mark [5] stands for this setting: DLD-1, first proliferation column (c5), taken as DLD-1 BRCA2-/-, read-out: POLQ PD Prolif Lumin (converted).
[6] abbreviates: DLD-1, DLD-1 BRCA2-/- proliferation, column head only partly shown, read-out: POLQ PD Prolif Lumin (converted).

On to `COc1ccc(Cn2c(-c3ccc(CC(N)=O)cc3Cl)nc3c(OC4(C)CC4)ncnc32)cc1` [Example T106, 2-(3-chloro-4-(9-(4-methoxybenzyl)-6-(1-methylcyclopropoxy)-9H-purin-8-yl)phenyl)acetamide], for which the IC50 under setting [1] was 631 nM.
In the case of `Cc1ccnc(Cn2c(-c3ccc(CC(=O)N4CC[C@](C)(O)C4)cc3Cl)nc3c(OC4(C)CC4)ncnc32)c1` [Example T575, (S)-2-(3-chloro-4-(6-(1-methylcyclopropoxy)-9-((4-methylpyridin-2-yl)methyl)-9H-purin-8-yl)phenyl)-1-(3-hydroxy-3-methylpyrrolidin-1-yl)ethan-1-one], the IC50 under setting [2] is 316 nM.
`Cc1ccnc(Cn2c(-c3ccc(C(=O)N4CC[C@@](C)(O)C4)cc3Cl)nc3c(OC4(C)CC4)ncnc32)c1` [Example T463, (R)-(3-chloro-4-(6-(1-methylcyclopropoxy)-9-((4-methylpyridin-2-yl)methyl)-9H-purin-8-yl)phenyl)(3-hydroxy-3-methylpyrrolidin-1-yl)methanone]: under setting [3], the IC50 is 1580 nM.
Regarding `CC1(Oc2ncnc3c2nc(-c2ccc(CC(N)=O)cc2Cl)n3Cc2noc(C(C)(C)C)n2)CC1` [Example T71, 2-(4-(9-((5-(tert-butyl)-1,2,4-oxadiazol-3-yl)methyl)-6-(1-methylcyclopropoxy)-9H-purin-8-yl)-3-chlorophenyl)acetamide], under setting [4], the IC50 was 7940 nM.
For the molecule `Cc1ccnc(Cn2c(-c3ccc(OCC(=O)NCCCF)cc3Cl)nc3c(OC4(C)CC4)ncnc32)c1` [Example T328, 2-(3-chloro-4-(6-(1-methylcyclopropoxy)-9-((4-methylpyridin-2-yl)methyl)-9H-purin-8-yl)phenoxy)-N-(3-fluoropropyl)acetamide], the IC50 under setting [5] is 398 nM.
`CC(CCOc1ccc(-c2nc3c(OC4(C)CC4)ncnc3n2Cc2cc(C#N)ccc2F)c(Cl)c1)C(=O)O` (racemic) [Example U18, 4-(3-chloro-4-(9-(5-cyano-2-fluorobenzyl)-6-(1-methylcyclopropoxy)-9H-purin-8-yl)phenoxy)-2-methylbutanoic acid]: the IC50 (DLD-1, DLD-1 BRCA2 −/−, mean, read-out: POLQ PD Prolif Lumin BRCA2 −/− mean pIC50 (converted)) was 398 nM.
`CNC(=O)COc1ccc(-c2nc3c(OC4(C)CC4)ncnc3n2Cc2cncs2)c(Cl)c1` [Example T8, 2-(3-chloro-4-(6-(1-methylcyclopropoxy)-9-(thiazol-5-ylmethyl)-9H-purin-8-yl)phenoxy)-N-methylacetamide]: the IC50 under setting [4] was 5010 nM.
`Cc1ccnc(Cn2c(-c3ccc(OCCNC(=O)[C@@H](C)O)cc3Cl)nc3c(OC4(C)CC4)ncnc32)c1` [Example T375, (R)-N-(2-(3-chloro-4-(6-(1-methylcyclopropoxy)-9-((4-methylpyridin-2-yl)methyl)-9H-purin-8-yl)phenoxy)ethyl)-2-hydroxypropanamide]: the IC50 under setting [5] is 251 nM.
Take `CC(=O)NCCc1ccc(-c2nc3c(OC4(C)CC4)ncnc3n2Cc2cc(C)ccn2)c(Cl)c1` [Example T212, N-(3-chloro-4-(6-(1-methylcyclopropoxy)-9-((4-methylpyridin-2-yl)methyl)-9H-purin-8-yl)phenethyl)acetamide]: under setting [6], the IC50 is 398 nM.
Regarding `CC(CCOc1ccc(-c2nc3c(OC4(C)CC4)ncnc3n2Cc2ccccc2C2CC2)c(Cl)c1)C(=O)O` (single isomer, unassigned) [Example T599, 4-(3-chloro-4-(9-(2-cyclopropylbenzyl)-6-(1-methylcyclopropoxy)-9H-purin-8-yl)phenoxy)-2-methylbutanoic acid], the IC50 under setting [2] was 631 nM.
As for `Cc1ccc(C)c(Cn2c(-c3ccc(OCCC(C)C(=O)O)cc3Cl)nc3c(OC4(C)CC4)ncnc32)c1` (single isomer, unassigned) [Example T573, 4-(3-chloro-4-(9-(2,5-dimethylbenzyl)-6-(1-methylcyclopropoxy)-9H-purin-8-yl)phenoxy)-2-methylbutanoic acid], the IC50 under setting [2] was 501 nM.
In the case of `CNC(=O)c1cccc(-c2nc3c(OC4(C)CC4)ncnc3n2Cc2cc(C)ccn2)c1Cl` [Example T55, 2-chloro-N-methyl-3-(6-(1-methylcyclopropoxy)-9-((4-methylpyridin-2-yl)methyl)-9H-purin-8-yl)benzamide], the IC50 under setting [4] was 631 nM.
`CC(=O)NCCCOc1ccc(-c2nc3c(OC4(C)CC4)ncnc3n2Cc2cc(C)ccn2)c(Cl)c1` [Example T367, N-(3-(3-chloro-4-(6-(1-methylcyclopropoxy)-9-((4-methylpyridin-2-yl)methyl)-9H-purin-8-yl)phenoxy)propyl)acetamide]: under setting [5], the IC50 is 316 nM.
On to `CC1(Oc2ncnc3c2nc(-c2ccc(CC(N)=O)cc2Cl)n3Cc2cccc(C#N)c2)CC1` [Example T81, 2-(3-chloro-4-(9-(3-cyanobenzyl)-6-(1-methylcyclopropoxy)-9H-purin-8-yl)phenyl)acetamide], for which, under setting [4], the IC50 is 200 nM.
Regarding `Cc1ccnc(Cn2c(-c3ccc(OCC(=O)NCC(F)F)cc3Cl)nc3c(OC4(C)CC4)ncnc32)c1` [Example T166, 2-(3-chloro-4-(6-(1-methylcyclopropoxy)-9-((4-methylpyridin-2-yl)methyl)-9H-purin-8-yl)phenoxy)-N-(2,2-difluoroethyl)acetamide], the IC50 under setting [1] is 316 nM.
Consider `CC(COc1cccc(-c2nc3c(OC4(C)CC4)ncnc3n2Cc2cc(Cl)ccc2F)c1Cl)CC(=O)O` (single isomer, unassigned) [Example U34, 4-(2-chloro-3-(9-(5-chloro-2-fluorobenzyl)-6-(1-methylcyclopropoxy)-9H-purin-8-yl)phenoxy)-3-methylbutanoic acid], for which the “POLQ PD Prolif Lumin BRCA2 −/− mean pIC50” value (DLD-1 BRCA2 −/−, mean) was determined as 7.5.
As to `CNC(=O)CCc1ccc(-c2nc3c(OC4(C)CC4)ncnc3n2Cc2cc(C)ccn2)c(Cl)c1` [Example T214, 3-(3-chloro-4-(6-(1-methylcyclopropoxy)-9-((4-methylpyridin-2-yl)methyl)-9H-purin-8-yl)phenyl)-N-methylpropanamide], the IC50 under setting [6] is 316 nM.
Turning to `Cc1ncc(Cn2c(-c3ccc(CC(N)=O)cc3Cl)nc3c(OC4(C)CC4)ncnc32)s1` [Example T5, 2-(3-chloro-4-(6-(1-methylcyclopropoxy)-9-((2-methylthiazol-5-yl)methyl)-9H-purin-8-yl)phenyl)acetamide], the IC50 under setting [4] is greater than 7940 nM.
Take `Cc1ccnc(Cn2c(-c3ccc(C(=O)N4CC(C)(O)C4)cc3Cl)nc3c(OC4(C)CC4)ncnc32)c1` [Example T314, (3-chloro-4-(6-(1-methylcyclopropoxy)-9-((4-methylpyridin-2-yl)methyl)-9H-purin-8-yl)phenyl)(3-hydroxy-3-methylazetidin-1-yl)methanone]: the IC50 under setting [5] is 1260 nM.
As to `Cc1ccnc(Cn2c(-c3ccc(NC(=O)N(C)C)cc3Cl)nc3c(OC4(C)CC4)ncnc32)c1` [Example T130, 3-(3-chloro-4-(6-(1-methylcyclopropoxy)-9-((4-methylpyridin-2-yl)methyl)-9H-purin-8-yl)phenyl)-1,1-dimethylurea], under setting [1], the IC50 is 501 nM.
Consider `CNC(=O)COc1ccc(-c2nc3c(OC4(C)CC4)ncnc3n2Cc2cc(Cl)ccn2)c(Cl)c1` [Example T51, 2-(3-chloro-4-(9-((4-chloropyridin-2-yl)methyl)-6-(1-methylcyclopropoxy)-9H-purin-8-yl)phenoxy)-N-methylacetamide], for which, under setting [4], the IC50 was 158 nM.
Turning to `Cc1ccnc(Cn2c(-c3ccc(OCC(=O)N4CCOCC4)cc3Cl)nc3c(OC4(C)CC4)ncnc32)c1` [Example T475, 2-(3-chloro-4-(6-(1-methylcyclopropoxy)-9-((4-methylpyridin-2-yl)methyl)-9H-purin-8-yl)phenoxy)-1-morpholinoethan-1-one], the IC50 under setting [3] was 251 nM.
